Results reported in ChEMBL document CHEMBL5584224, “Recent advances in c-Met-based dual inhibitors in the treatment of cancers” (Eur J Med Chem, 2024).

Tests used:
NCI-H3122 = test: Antiproliferative activity against human NCI-H3122 cells assessed as reduction in cell viability incubated for 48 hrs by MTT assay; type: functional, cell-based; details: NCI-H3122, 48 h
[1] = biological target: Fibroblast growth factor receptor 1 (Homo sapiens, UniProt P11362); test: Inhibition of FGFR1 (unknown origin)
Sequence of Fibroblast growth factor receptor 1 (P11362 whole entry): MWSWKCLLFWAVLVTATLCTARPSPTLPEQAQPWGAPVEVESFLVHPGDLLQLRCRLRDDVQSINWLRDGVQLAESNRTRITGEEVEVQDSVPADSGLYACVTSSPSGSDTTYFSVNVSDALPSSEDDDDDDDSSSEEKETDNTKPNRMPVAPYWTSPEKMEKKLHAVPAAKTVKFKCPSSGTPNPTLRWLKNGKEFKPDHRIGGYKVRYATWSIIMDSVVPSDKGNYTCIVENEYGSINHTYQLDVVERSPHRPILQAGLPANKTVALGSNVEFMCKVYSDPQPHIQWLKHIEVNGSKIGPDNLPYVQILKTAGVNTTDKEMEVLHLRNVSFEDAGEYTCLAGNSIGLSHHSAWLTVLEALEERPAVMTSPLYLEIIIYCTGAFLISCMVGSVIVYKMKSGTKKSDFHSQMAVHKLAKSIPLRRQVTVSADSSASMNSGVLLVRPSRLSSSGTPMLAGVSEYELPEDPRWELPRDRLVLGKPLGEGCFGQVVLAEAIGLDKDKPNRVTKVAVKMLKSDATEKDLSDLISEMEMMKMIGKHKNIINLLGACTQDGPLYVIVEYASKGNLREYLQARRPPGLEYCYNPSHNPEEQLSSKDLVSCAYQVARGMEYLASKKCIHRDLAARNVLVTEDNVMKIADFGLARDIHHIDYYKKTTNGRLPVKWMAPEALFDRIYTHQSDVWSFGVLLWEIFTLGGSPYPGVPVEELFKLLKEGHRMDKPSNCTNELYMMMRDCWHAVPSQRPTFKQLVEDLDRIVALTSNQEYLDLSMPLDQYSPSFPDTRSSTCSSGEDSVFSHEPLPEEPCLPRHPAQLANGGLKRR

[2] = biological target: Fibroblast growth factor receptor 3 (Homo sapiens, UniProt P22607); test: Inhibition of FGFR3 (unknown origin)
Sequence of Fibroblast growth factor receptor 3 (P22607 whole entry): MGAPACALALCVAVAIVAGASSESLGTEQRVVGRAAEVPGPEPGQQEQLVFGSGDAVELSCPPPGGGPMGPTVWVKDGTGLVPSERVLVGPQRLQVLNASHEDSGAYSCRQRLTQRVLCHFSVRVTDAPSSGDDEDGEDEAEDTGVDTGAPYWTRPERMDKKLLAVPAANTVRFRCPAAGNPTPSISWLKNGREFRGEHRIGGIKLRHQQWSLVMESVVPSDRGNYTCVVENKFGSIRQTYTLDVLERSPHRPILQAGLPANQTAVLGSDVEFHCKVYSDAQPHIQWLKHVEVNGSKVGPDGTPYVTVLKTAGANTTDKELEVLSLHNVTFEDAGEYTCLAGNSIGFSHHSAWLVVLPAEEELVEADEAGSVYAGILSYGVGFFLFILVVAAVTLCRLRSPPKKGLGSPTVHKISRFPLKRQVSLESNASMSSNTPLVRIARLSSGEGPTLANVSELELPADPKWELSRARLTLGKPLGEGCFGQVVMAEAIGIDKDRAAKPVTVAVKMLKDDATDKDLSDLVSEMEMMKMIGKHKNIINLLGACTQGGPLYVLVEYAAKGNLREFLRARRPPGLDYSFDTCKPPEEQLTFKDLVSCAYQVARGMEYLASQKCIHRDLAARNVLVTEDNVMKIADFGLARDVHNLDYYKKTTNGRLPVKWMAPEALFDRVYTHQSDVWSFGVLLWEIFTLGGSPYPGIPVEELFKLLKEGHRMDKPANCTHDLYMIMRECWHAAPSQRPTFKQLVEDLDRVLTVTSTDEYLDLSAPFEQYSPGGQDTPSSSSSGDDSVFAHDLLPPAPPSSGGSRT

[3] = biological target: Fibroblast growth factor receptor 2 (Homo sapiens, UniProt P21802); test: Inhibition of FGFR2 (unknown origin)
Sequence of Fibroblast growth factor receptor 2 (P21802 whole entry): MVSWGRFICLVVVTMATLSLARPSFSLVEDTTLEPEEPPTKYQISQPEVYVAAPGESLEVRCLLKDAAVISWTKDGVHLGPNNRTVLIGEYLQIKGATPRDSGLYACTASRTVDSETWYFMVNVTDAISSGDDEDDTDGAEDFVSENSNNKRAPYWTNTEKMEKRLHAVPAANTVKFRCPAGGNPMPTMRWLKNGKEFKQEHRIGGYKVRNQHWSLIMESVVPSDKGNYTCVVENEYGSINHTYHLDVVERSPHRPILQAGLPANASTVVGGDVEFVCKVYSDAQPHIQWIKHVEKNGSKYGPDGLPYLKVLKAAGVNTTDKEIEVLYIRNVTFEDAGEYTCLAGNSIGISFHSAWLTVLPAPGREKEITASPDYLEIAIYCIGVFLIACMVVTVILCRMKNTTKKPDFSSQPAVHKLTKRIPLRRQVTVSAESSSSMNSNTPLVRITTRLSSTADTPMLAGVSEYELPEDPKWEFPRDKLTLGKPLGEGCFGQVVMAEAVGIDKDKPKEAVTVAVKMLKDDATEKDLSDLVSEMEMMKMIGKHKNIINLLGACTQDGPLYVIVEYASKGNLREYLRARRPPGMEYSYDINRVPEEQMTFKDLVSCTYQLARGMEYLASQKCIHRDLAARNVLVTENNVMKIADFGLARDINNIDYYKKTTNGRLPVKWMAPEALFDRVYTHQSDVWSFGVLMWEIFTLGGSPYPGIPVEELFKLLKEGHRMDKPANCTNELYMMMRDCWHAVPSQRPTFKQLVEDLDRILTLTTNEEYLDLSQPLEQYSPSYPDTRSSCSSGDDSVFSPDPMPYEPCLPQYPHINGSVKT

[4] = Inhibition of TrxR (unknown origin); design: species or system Homo sapiens
HCCLM3 = test: Cytotoxicity against human HCCLM3 cells assessed as cell growth inhibition incubated for 48 hrs by MTT assay; type: functional, cell-based; details: HCCLM3, 48 h
PC-9 = test: Antiproliferative activity against human PC-9 cells assessed as reduction in cell growth incubated for 72 hrs by MTT assay; type: functional, cell-based; details: PC-9, 72 h
A549 [5] = test: Antiproliferative activity against human A549 cells assessed as reduction in cell viability incubated for 72 hrs by MTT assay; type: functional, cell-based; details: A549, 72 h
A549 [6] = test: Antiproliferative activity against human A549 cells assessed as reduction in cell viability incubated for 24 hrs by MTT assay; type: functional, cell-based; details: A549, 24 h
HT-29 = test: Antiproliferative activity against human HT-29 cells assessed as reduction in cell viability incubated for 24 hrs by MTT assay; type: functional, cell-based; details: HT-29, 24 h
MDA-MB-231 [7] = test: Antiproliferative activity against human MDA-MB-231 cells assessed as reduction in cell viability incubated for 24 hrs by MTT assay; type: functional, cell-based; details: MDA-MB-231, 24 h
MCF7 = test: Antiproliferative activity against human MCF7 cells assessed as reduction in cell viability incubated for 24 hrs by MTT assay; type: functional, cell-based; details: MCF7, 24 h
COLO 205 = test: Antiproliferative activity against human COLO 205 cells assessed as reduction in cell viability incubated for 24 hrs by MTT assay; type: functional, cell-based; details: COLO 205, 24 h
[8] = biological target: T1, Hepatocyte growth factor receptor (Homo sapiens, UniProt P08581)
T1 sequence (P08581 whole entry): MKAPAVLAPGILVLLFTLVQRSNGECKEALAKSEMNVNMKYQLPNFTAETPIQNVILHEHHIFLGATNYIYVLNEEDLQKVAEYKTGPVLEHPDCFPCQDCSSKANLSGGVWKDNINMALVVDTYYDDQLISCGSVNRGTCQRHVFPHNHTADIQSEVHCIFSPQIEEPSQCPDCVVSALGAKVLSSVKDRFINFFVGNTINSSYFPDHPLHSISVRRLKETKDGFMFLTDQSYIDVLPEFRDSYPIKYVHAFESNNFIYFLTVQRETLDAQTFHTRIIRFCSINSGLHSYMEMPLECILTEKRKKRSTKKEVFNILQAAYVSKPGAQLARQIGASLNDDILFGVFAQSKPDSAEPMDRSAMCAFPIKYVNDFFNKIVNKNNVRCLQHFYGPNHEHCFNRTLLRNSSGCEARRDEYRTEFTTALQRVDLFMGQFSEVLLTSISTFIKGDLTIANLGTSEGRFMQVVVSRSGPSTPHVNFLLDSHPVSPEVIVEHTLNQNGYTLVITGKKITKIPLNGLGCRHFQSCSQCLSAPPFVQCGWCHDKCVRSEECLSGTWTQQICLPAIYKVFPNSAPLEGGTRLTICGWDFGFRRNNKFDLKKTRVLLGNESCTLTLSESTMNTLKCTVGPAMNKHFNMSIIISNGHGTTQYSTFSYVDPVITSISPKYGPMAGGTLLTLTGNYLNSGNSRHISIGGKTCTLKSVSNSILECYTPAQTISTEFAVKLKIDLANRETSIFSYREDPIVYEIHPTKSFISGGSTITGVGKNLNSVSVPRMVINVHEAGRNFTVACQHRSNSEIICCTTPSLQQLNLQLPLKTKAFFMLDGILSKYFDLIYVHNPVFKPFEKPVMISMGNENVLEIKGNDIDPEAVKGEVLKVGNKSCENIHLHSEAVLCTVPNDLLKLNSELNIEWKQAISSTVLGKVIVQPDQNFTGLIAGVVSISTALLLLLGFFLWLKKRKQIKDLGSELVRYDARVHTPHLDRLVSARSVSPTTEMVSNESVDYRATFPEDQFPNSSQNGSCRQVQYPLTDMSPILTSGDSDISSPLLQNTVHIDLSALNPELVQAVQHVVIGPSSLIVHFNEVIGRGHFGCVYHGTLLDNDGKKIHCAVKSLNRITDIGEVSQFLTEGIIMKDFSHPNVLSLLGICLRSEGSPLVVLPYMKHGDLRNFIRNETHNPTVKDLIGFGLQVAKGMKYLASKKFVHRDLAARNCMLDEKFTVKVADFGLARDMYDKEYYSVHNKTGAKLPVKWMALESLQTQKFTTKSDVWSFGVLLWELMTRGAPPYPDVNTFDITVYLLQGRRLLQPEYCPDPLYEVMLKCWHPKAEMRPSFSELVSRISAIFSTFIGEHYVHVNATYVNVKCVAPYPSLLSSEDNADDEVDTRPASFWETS
Description: Inhibition of c-MET (unknown origin)

[9] = biological target: Prostaglandin G/H synthase 2 (Homo sapiens, UniProt P35354); test: Inhibition of COX-2 (unknown origin)
Sequence of Prostaglandin G/H synthase 2 (P35354 whole entry): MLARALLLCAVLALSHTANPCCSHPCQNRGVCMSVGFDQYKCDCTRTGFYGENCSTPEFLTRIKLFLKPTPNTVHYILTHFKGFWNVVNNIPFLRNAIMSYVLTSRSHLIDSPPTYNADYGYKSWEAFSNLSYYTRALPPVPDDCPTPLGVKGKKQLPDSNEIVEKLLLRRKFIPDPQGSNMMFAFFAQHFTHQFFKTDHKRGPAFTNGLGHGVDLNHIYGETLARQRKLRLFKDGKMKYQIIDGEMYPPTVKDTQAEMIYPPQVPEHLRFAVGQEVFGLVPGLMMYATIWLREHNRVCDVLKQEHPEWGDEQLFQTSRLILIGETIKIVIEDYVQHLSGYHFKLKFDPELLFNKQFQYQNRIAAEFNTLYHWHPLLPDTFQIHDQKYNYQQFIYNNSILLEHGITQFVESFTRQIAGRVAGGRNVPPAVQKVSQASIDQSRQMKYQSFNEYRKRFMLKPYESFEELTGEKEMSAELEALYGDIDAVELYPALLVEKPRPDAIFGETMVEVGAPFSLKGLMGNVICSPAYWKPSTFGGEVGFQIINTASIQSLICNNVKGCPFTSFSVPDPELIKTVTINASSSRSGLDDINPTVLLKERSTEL

MKN-45 = test: Antiproliferative activity against human MKN-45 cells assessed as cell growth inhibition incubated for 48 hrs by MTT assay; type: functional, cell-based; details: MKN-45, 48 h
MHCC97H = test: Antiproliferative activity against human MHCC97H cells assessed as cell growth inhibition incubated for 48 hrs by MTT assay; type: functional, cell-based
[10] = biological target: T2, Tyrosine-protein kinase receptor UFO (Homo sapiens, UniProt P30530); test: Inhibition of AXL (unknown origin)
T2 sequence (P30530 whole entry): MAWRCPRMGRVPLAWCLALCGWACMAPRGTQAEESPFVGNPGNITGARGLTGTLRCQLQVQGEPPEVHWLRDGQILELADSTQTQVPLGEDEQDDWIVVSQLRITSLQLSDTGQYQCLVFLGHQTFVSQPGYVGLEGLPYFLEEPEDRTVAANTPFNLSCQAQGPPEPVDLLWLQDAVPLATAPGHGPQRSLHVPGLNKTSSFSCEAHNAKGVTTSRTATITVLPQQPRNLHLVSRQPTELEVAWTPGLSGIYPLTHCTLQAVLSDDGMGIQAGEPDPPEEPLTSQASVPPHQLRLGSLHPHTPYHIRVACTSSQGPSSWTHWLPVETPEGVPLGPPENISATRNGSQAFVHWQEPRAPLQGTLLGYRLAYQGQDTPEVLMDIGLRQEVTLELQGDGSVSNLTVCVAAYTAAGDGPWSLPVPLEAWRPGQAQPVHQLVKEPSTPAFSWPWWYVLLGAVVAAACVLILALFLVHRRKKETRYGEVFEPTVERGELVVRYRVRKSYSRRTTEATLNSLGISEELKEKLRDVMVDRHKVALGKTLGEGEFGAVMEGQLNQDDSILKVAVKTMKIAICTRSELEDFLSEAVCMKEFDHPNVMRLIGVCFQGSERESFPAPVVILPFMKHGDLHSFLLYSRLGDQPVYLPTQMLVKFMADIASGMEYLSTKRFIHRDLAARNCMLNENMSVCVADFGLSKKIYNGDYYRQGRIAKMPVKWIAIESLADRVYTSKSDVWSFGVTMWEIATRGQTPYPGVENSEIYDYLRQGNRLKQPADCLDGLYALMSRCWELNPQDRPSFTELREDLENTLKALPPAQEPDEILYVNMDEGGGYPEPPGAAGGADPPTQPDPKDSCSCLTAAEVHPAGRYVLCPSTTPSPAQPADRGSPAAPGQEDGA

HepG2 [11] = test: Antiproliferative activity against human HepG2 cells assessed as reduction in cell viability incubated for 72 hrs by MTT assay; type: functional, cell-based; details: HepG2, 72 h
HepG2 [12] = test: Antitumor activity against human HepG2 cells xenografted in mouse model assessed as tumor growth inhibition at 48 mg/kg/day for 7 days relative to control; type: functional; design: scale not given: the % may be the effect or the level left; details: time 7 day
HepG2 [13] = test: Antitumor activity against human HepG2 cells xenografted in mouse model assessed as tumor growth inhibition at 16 mg/kg/day for 7 days relative to control; type: functional; design: scale not given: the % may be the effect or the level left; details: time 7 day
Histone deacetylase 1 = Histone deacetylase 1 (Homo sapiens, UniProt Q13547); test: Inhibition of HDAC1 (unknown origin) expressed in Sf9 cells using Z-Lys(Ac)-AMC as fluorogenic substrate preincubated for 60 mins followed by substrate addition and measured after 1 hr by fluorescence based microplate analysis
Sequence of Histone deacetylase 1 (Q13547 whole entry): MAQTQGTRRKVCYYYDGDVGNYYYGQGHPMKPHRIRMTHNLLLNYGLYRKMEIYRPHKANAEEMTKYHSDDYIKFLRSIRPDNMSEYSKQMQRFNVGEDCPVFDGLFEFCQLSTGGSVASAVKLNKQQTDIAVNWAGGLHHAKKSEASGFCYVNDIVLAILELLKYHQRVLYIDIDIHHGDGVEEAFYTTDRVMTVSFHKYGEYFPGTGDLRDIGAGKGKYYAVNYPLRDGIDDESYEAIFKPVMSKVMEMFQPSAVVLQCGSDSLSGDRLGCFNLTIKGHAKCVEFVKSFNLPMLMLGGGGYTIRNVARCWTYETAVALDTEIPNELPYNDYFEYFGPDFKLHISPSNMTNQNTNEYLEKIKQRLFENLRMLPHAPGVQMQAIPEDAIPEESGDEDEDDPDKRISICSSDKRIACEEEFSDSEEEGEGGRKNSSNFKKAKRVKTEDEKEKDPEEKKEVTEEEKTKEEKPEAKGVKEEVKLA

[14] = biological target: T1, Hepatocyte growth factor receptor; test: Inhibition of c-Met (unknown origin) by mobility shift assay
NCI-H322M = test: Antiproliferative activity against human NCI-H322M cells assessed as cell growth inhibition incubated for 72 hrs by MTT assay; type: functional, cell-based
KB 3-1 = test: Antiproliferative activity against human KB-3-1 cells assessed as cell growth inhibition; type: functional, cell-based
4T1 = test: Antiproliferative activity against mouse 4T1 cells assessed as reduction in cell viability by MTT assay; type: functional, cell-based
BT-549 = test: Antiproliferative activity against human BT-549 cells assessed as reduction in cell viability by MTT assay; type: functional, cell-based
MDA-MB-231 [15] = test: Antiproliferative activity against human MDA-MB-231 cells assessed as reduction in cell viability by MTT assay; type: functional, cell-based
[16] = biological target: ALK tyrosine kinase receptor (Homo sapiens, UniProt Q9UM73)
Description: Inhibition of ALK (unknown origin) by TR-FRET assay

Which IC50 (NCI-H3122) does the source give for `C[C@@H](Oc1cc(C(=O)Nc2ccc(C(=O)N3CCN(C)CC3)cc2)nnc1N)c1c(Cl)ccc(F)c1Cl` here?
The IC50 was 0.077 µM.

Which IC50 [1] does the source give for `O=C1Nc2ccc(CN3C(=O)CSC3=O)cc2/C1=C/c1cc(CN2CCOCC2)c[nH]1` here?
The IC50 was 0.018 µM.

And the IC50 [2]?
Its IC50 is 0.015 µM.

And the IC50 [3]?
Its IC50 is 0.017 µM.

For `O=C(Nc1cccc(-c2nc(-c3ccc(NC(=O)c4cccnc4)cc3Cl)no2)c1)Nc1ccc(NC(=O)C2CC2)c(C(F)(F)F)c1`, which IC50 [4] is on record?
Its IC50 is 0.5 µM.

For `CN(C)CCC[Se]c1cnc(-c2cccc(Cn3nc(-c4cccc(C#N)c4)ccc3=O)c2)nc1`, which IC50 (HCCLM3) is on record?
The IC50 was 0.013 µM.

With `C=CC(=O)Nc1cc2c(Oc3ccc(NC(=O)c4c(C)n(C)n(-c5ccccc5)c4=O)cc3F)ncnc2cc1OC` as the compound, how does the IC50 (PC-9) read?
The IC50 was 1.05 µM.

What about the IC50 (A549 [5]) of the same compound?
The IC50 was 1.06 µM.

With `O=C(/C=C/c1ccc(F)cc1)c1cccc(NC(=O)c2ccc(Cl)cc2)c1` as the compound, how does the IC50 (A549 [6]) read?
The IC50 was 43.8 µM.

What about the IC50 (HT-29) of the same compound?
The IC50 was 13.6 µM.

And the IC50 (MDA-MB-231 [7])?
The IC50 was 43 µM.

What about the IC50 (MCF7) of the same compound?
The IC50 was 7.07 µM.

And the IC50 (COLO 205)?
Its IC50 is less than 0.1 µM.

What about the IC50 [8] of the same compound?
Its IC50 is 7.9 µM.

What about the IC50 [9] of the same compound?
The IC50 was 2.43 µM.

What does the source list for `Cc1ccc(C(=O)Nc2cccc(C(=O)/C=C/c3ccc(F)cc3)c2)cc1`?
IC50 (A549 [6]): 37 µM; IC50 (HT-29): 10.4 µM; IC50 (MDA-MB-231 [7]): 7.93 µM; IC50 (MCF7): 15.7 µM; IC50 (COLO 205): < 0.1 µM; IC50 [8]: 6.61 µM; IC50 [9]: 1.62 µM

Which IC50 (MKN-45) does the source give for `[2H][C@@](C)(c1cccc(-c2ncc(OCC3CCN(C)CC3)cn2)c1)n1nc(-c2cccc(C#N)c2)ccc1=O` here?
The IC50 was 0.001 µM.

And the IC50 (MHCC97H)?
Its IC50 is 0.0043 µM.

Which IC50 [10] does the source give for `O=C(Nc1ccc(F)cc1)C1(C(=O)Nc2ccc(Oc3ncnn4cc(-c5cnn(CCO)c5)cc34)cc2)CC1` here?
Its IC50 is 0.0086 µM.

Which IC50 [10] does the source give for `Cn1cc(-c2cc3c(Oc4ccc(NC(=O)C5(C(=O)Nc6ccc(F)cc6)CC5)cc4)ncnn3c2)cn1` here?
The IC50 was 0.026 µM.

For `CC(C)n1cc(C(=O)Nc2ccc(Oc3ccnc4c3Oc3ccccc3N4)c(F)c2)c(=O)c(-c2ccc(F)cc2)c1`, which IC50 [10] is on record?
The IC50 was 0.007 µM.

With `Cc1ccccc1NS(=O)(=O)c1ccc2c(c1)/C(=C/c1nc3ccccc3[nH]1)C(=O)N2.Cl` as the compound, how does the IC50 (HepG2 [11]) read?
Its IC50 is 1.46 µM.

And the Activity (HepG2 [12])?
Its Activity is 65.2%.

And the Activity (HepG2 [13])?
The Activity was 65.2%.

With `Nc1ccccc1NC(=O)c1ccc(OCCCOc2ccc3c(OCCn4nc(-c5cn[nH]c5)ccc4=O)ccnc3c2)cn1` as the compound, how does the IC50 (Histone deacetylase 1) read?
The IC50 was 0.038 µM.

What about the IC50 [14] of the same compound?
The IC50 was 0.00071 µM.

For `COc1cc2nccc(Oc3ccc(Nc4nccc5ccn(-c6ccc(Br)cc6)c(=O)c45)cc3F)c2cc1OC`, which IC50 [10] is on record?
The IC50 was greater than 1 µM.

For `COc1cc2nccc(Oc3ccc(Nc4nccc5ccn(-c6ccc(C)cc6)c(=O)c45)cc3F)c2cc1OC`, which IC50 [10] is on record?
The IC50 was 0.0172 µM.

Which results are given for `C/C=C(/C=O)[C@@H](CC=O)CC(=O)OCCc1ccc(O)cc1` [(-)-OLEOCANTHAL]?
IC50 (A549 [6]): 10 µM; IC50 (NCI-H322M): 26.3 µM

With `COc1cc2c(c(OC)c1OC)-c1ccc(OC)c(=O)cc1[C@@H](NC(C)=O)CC2` [COLCHICINE] as the compound, how does the IC50 (KB 3-1) read?
The IC50 was 1.9 µM.

Which IC50 (4T1) does the source give for `COc1cc2nc(N3CCN(C(=O)C4COc5ccccc5O4)CC3)nc(N)c2cc1OC` (centres undefined) [DOXAZOSIN] here?
Its IC50 is 7.73 µM.

And the IC50 (BT-549)?
Its IC50 is 24.8 µM.

What about the IC50 (MDA-MB-231 [15]) of the same compound?
The IC50 was 23.9 µM.

Which IC50 (KB 3-1) does the source give for `COc1cccc2c1C(=O)c1c(O)c3c(c(O)c1C2=O)C[C@@](O)(C(=O)CO)C[C@@H]3O[C@H]1C[C@H](N)[C@H](O)[C@H](C)O1` [DOXORUBICIN] here?
Its IC50 is 0.006 µM.

With `COc1cc(N2CCNC[C@@H]2C)ncc1-c1cnc(N)c(O[C@H](C)c2c(Cl)ccc(F)c2Cl)c1` [ENVONALKIB] as the compound, how does the IC50 [16] read?
Its IC50 is 0.0143 µM.

Which IC50 (KB 3-1) does the source give for `COCCNCc1ccc(-c2cc3nccc(Oc4ccc(NC(=S)NC(=O)Cc5ccc(F)cc5)cc4F)c3s2)nc1` [GLESATINIB] here?
The IC50 was 0.004 µM.

Which IC50 (KB 3-1) does the source give for `CC(=O)O[C@H]1C(=O)[C@@]2(C)[C@H]([C@H](OC(=O)c3ccccc3)[C@]3(O)C[C@H](OC(=O)[C@H](O)[C@@H](NC(=O)c4ccccc4)c4ccccc4)C(C)=C1C3(C)C)[C@]1(OC(C)=O)CO[C@@H]1C[C@@H]2O` [PACLITAXEL] here?
Its IC50 is 0.029 µM.
